In a melting point compilation (Tetko et al.; mined from patent text by program, amines drawn as free bases though some values may be those of a salt):

For COc1ccc2oc(C(=O)c3cccnc3F)cc2c1, which melting point is on record?
The melting point was 130 to 134 °C.

Which melting point does the source give for COc1nc2cc(Cl)c(C)c(N)c2nc1OC here?
The melting point was 181 to 182 °C.

For CC(C)(C)OC(=O)C=Cc1ccc(C[C@H](NC(=O)OC(C)(C)C)C(=O)OC(c2ccccc2)c2ccccc2)cc1, which melting point is on record?
The melting point was 135 to 137 °C.

Which melting point does the source give for NS(=O)(=O)c1cc(C(=O)OCC(=O)NCCO[N+](=O)[O-])c(NCc2ccco2)cc1Cl here?
Its melting point is 135 °C.

For Nc1c(-c2cccnc2)nsc1C(=O)O, which melting point is on record?
Its melting point is 235 to 236 °C.

With COC(=O)/C(=C/c1cccc(OC)c1)c1cc(OC)c(OC)c(OC)c1 as the molecule, how does the melting point read?
The melting point was 87 to 88 °C.

Which melting point does the source give for COc1ccc(/C=C/C(=O)/C=C/C(=O)O)c(OC)c1 here?
The melting point was 195 to 200 °C.

Which melting point does the source give for OC1CCN(Cc2ccc(Br)cc2)CC1N1CCC(c2ccccc2)CC1 (stereo not drawn) here?
The melting point was 159 to 161 °C.

With CS(=O)(=O)c1ccc(C(=O)O)c(Cl)c1-c1nccs1 as the molecule, how does the melting point read?
Its melting point is 288 to 290 °C.

Which melting point does the source give for CCNC(=O)c1cc(C(F)(F)F)ccc1[Si](C)(C)C here?
The melting point was 101 to 102 °C.

With COc1ccc(C(=O)Nc2cc(NC(=O)c3cccc(O)c3)ccc2C)cc1OC as the molecule, how does the melting point read?
The melting point was 182 to 183 °C.

For Nc1nc(-n2cc(C(=O)O)c(=O)c3cc(F)c(F)c(Cl)c32)ncc1F, which melting point is on record?
The melting point was 242 to 246 °C.

For COc1ccc(F)cc1C(C)(C)CC(=O)C(=O)O, which melting point is on record?
The melting point was 58 to 60 °C.

With CCOc1nc(-c2cc(NC(=O)c3ccc(C)c(F)c3)ccc2C)c2c(n1)N(c1c(F)cccc1F)C(=O)NC2 as the molecule, how does the melting point read?
Its melting point is 257 to 262 °C.

For O=c1[nH]c2ccc(S(=O)CCN3CCC(Cc4ccc(Cl)cc4)CC3)cc2o1 (stereo not drawn), which melting point is on record?
Its melting point is 213 to 214 °C.

With CCOc1cc(=O)[nH]c2ccccc12 as the molecule, how does the melting point read?
The melting point was 223 to 226 °C.

For Cc1cc2c(c3ccc(=O)[nH]c13)OC(CNC(=O)CN(C)C)C2 (stereo not drawn), which melting point is on record?
Its melting point is over 250 °C.

Which melting point does the source give for Cc1nn(CC2CCCC2)c2nc(-c3ccncc3)nc(N)c12 here?
The melting point was 177 to 178 °C.

With CC(=NNc1ccc(-c2c[nH]c(=O)cn2)cc1)c1ccncc1 as the molecule, how does the melting point read?
The melting point was 175 to 179 °C.

Which melting point does the source give for Cn1cncc1C(O)(c1ccc(F)cc1)c1ccc2c(c1)C(c1cccc(Cl)c1)n1nnnc1N2 (stereo not drawn) here?
The melting point was 180 °C.

For Cc1oc(C)c(C(=O)OC2CC(C)(C)N(CC#N)C(C)(C)C2)c1C, which melting point is on record?
The melting point was 88 to 89 °C.

For CC(=O)NC(=O)Nc1ccc(OS(=O)(=O)c2cccc(C(F)(F)F)c2)cc1[N+](=O)[O-], which melting point is on record?
Its melting point is 196 °C.

Which melting point does the source give for CCNC(=O)CC(Cc1cccc2ccccc12)C(=O)NC(Cc1c[nH]cn1)C(=O)NC(CC(C)C)C(O)C(=O)OC (mixture of isomers) here?
Its melting point is 103 to 108 °C.

With ClC[Si](c1ccc(Cl)cc1)(c1ccc(Cl)cc1)c1ccc(Cl)cc1 as the molecule, how does the melting point read?
Its melting point is 89 to 93 °C.

Which melting point does the source give for CCCCN(CCCC)CCCOc1ccc(-c2cn3cccc(C)c3n2)cc1OC here?
Its melting point is 127 to 130 °C.

With CC(=O)NCC1CN(c2ccc(N3CCN(C4=NCCS4)CC3)c(F)c2)C(=O)O1 (stereo not drawn) as the molecule, how does the melting point read?
The melting point was 219 to 223 °C.

With CCCCc1cc(=O)c2ccccc2n1Cc1ccc(-c2ccccc2C(=O)O)cc1 as the molecule, how does the melting point read?
Its melting point is over 260 °C.

With CCCCCCCCCCCCCCCCOC(=O)c1ccc(-c2ncc[nH]2)nc1 as the molecule, how does the melting point read?
Its melting point is 97 to 98 °C.

With CC(C)(C)c1cc(C=Cc2ccccc2NC(=O)NC23CC4CC(CC(C4)C2)C3)cc(C(C)(C)C)c1O as the molecule, how does the melting point read?
Its melting point is 205 to 211 °C.

Which melting point does the source give for Cc1cc(OCc2coc(/C=C/c3ccc(S(=O)C(F)(F)F)cc3)n2)ccc1CCCCn1ccnn1 (stereo not drawn) here?
Its melting point is 113 to 114 °C.

Which melting point does the source give for Cc1cc(CCCCCCc2c(Cl)cc(C3=NCCO3)cc2Cl)on1 here?
The melting point was 65 to 66 °C.

Which melting point does the source give for CCOC(=O)c1cnn2c(-c3ccccc3)ccnc12 here?
The melting point was 129 to 130 °C.

For CCOC(=O)c1cn(-c2nccs2)c2nc(N3CCC(NC(=O)[C@H](C)NC(=O)OC(C)(C)C)C3)ccc2c1=O (stereo partly drawn), which melting point is on record?
The melting point was 138 to 140 °C.

With O=C1Cc2cc(Sc3ccccc3)ncc2N1 as the molecule, how does the melting point read?
The melting point was 186 to 189 °C.

For CN1CC(CCCl)Oc2ncc(Cl)cc2C1=S (stereo not drawn), which melting point is on record?
The melting point was 125 to 127 °C.

For CCSc1cn(C)cc(-c2cc(C(F)(F)F)ccc2Cl)c1=O, which melting point is on record?
Its melting point is 127 to 129 °C.

Which melting point does the source give for N#Cc1ccc([C@H]2CC[C@H](C=C(F)F)CC2)cc1 here?
Its melting point is 59.3 °C.

Which melting point does the source give for CCC(C(=O)c1ccc(O)cc1)c1ccccc1 (stereo not drawn) here?
The melting point was 127 to 129 °C.

Which melting point does the source give for Cc1cc(C)c2ncc(NC(=O)c3cc(C(C)C)c(O)c(C(C)C)c3)c(-c3ccccc3Cl)c2c1 here?
The melting point was 237 to 238 °C.

Which melting point does the source give for CCN(C)C(=O)NS(=O)(=O)c1ccccc1OC(Cl)=CCl here?
The melting point was 179 to 180 °C.

With CCN(CCCOC)c1nc(C)nc2c1nnn2-c1ccc(C(C)C)cc1Br as the molecule, how does the melting point read?
The melting point was 109 to 110 °C.

With CCOc1c(-c2ccc(F)cc2)c(=O)c1=O as the molecule, how does the melting point read?
The melting point was 126 to 129 °C.

With CCC(=O)OC1CC2(CCN(CCCC(=O)c3ccc(F)cc3)C2)c2ccc(C)cc21 (stereo not drawn) as the molecule, how does the melting point read?
Its melting point is 153 to 155 °C.

Which melting point does the source give for Cc1cccc(C)c1CNc1cc(C(=O)N(C)C)nc2c(C)c(C)[nH]c12 here?
The melting point was 315 °C.

Which melting point does the source give for CCOC(=O)c1c[nH]c2nc(NCc3ccc(Br)cc3)nn2c1=O here?
The melting point was 286 to 287 °C.

Which melting point does the source give for CN(CCC(Oc1ccc(C(F)(F)F)cc1)c1ccccc1)Cc1ccccc1 (stereo not drawn) here?
The melting point was 42 to 44 °C.

Which melting point does the source give for CC(C)(C)C(=O)c1ccc(COc2ccccc2)cc1 here?
The melting point was 79.5 to 80 °C.

Which melting point does the source give for CSCC[C@@H](NC(=O)[C@H](Cc1ccc(O)cc1)NC(=O)OC(C)(C)C)C(=O)NCC(=O)O here?
The melting point was 194 °C.

For CC#Cc1cc(C)nc(Nc2ccc(F)cc2)n1, which melting point is on record?
Its melting point is 138 to 140 °C.

Which melting point does the source give for Nc1nc(-n2cc(C(=O)O)c(=O)c3cc(F)c(N4CC(O)C4)c(F)c32)c(F)cc1F here?
The melting point was 269 to 272 °C.

For Cc1cc(C)c(-c2n[nH]c(=O)c3ccccc23)c(C)c1, which melting point is on record?
The melting point was 259 to 262 °C.

For CC1(C)Cc2sc(C(=O)O)cc2C1=O, which melting point is on record?
The melting point was 124 to 125 °C.

Which melting point does the source give for C#CCOc1cc(-c2nn(C)c(S(C)=O)c2C)c(F)cc1Cl (stereo not drawn) here?
The melting point was 93 to 96 °C.

With COC1(C)CN(c2ccc(N3C[C@H](CNC(C)=O)OC3=O)cc2F)C1 as the molecule, how does the melting point read?
Its melting point is 113 to 114 °C.

Which melting point does the source give for COc1cccc(C=CC(=O)c2c(OCC=C(C)C)ccc3c(=O)c4ccccc4oc23)c1 here?
Its melting point is 134 to 136 °C.

Which melting point does the source give for Cc1c(N)cccc1C1=NC(C)(C)CO1 here?
The melting point was 45 °C.

With Cc1ccnc(-c2cccnc2)c1OC1SCC(O)C(O)C1O (stereo not drawn) as the molecule, how does the melting point read?
Its melting point is 98 °C.

For CCCCC1C2CCCC(C2=O)C2(O)CCCCC12 (stereo not drawn), which melting point is on record?
The melting point was 140 to 141 °C.

For COC(=O)CC(=O)NC[C@H]1CN(c2ccc3c(c2)CCCc2cnoc2-3)C(=O)O1, which melting point is on record?
Its melting point is 205 to 217 °C.

For C[C@@H]1Cc2cc3c(cc2C(c2ccc([N+](=O)[O-])cc2)=NN1C(=S)NN)OCO3, which melting point is on record?
Its melting point is 140 to 142 °C.

Which melting point does the source give for CCCCc1nn(-c2cc(NC(C)=O)ccc2Cl)c(=O)n1Cc1ccc(-c2cc(CCC)ccc2S(=O)(=O)NC(C)(C)C)cc1F here?
The melting point was 125 to 128 °C.

For OCc1cc(C(F)(F)F)ccc1Sc1ccccc1, which melting point is on record?
The melting point was 84 °C.

With CCOC(=O)c1cc(=O)c2cc3c(=O)cc(C(=O)OCC)n(CC)c3cc2o1 as the molecule, how does the melting point read?
The melting point was 193 to 194 °C.

For Fc1ccc(Nc2nc(N/N=C/c3c(F)cccc3F)nc(N3CCOCC3)n2)cc1, which melting point is on record?
Its melting point is 156 °C.

Which melting point does the source give for CCc1nc2cc(N(C)C)c(Cl)cc2n1-c1ccc(CCNC(=O)NS(=O)(=O)c2ccc(C)cc2)cc1 here?
The melting point was 108 to 114 °C.

For CC(=O)NC(=O)c1cncc([N+](=O)[O-])c1, which melting point is on record?
Its melting point is 162 to 163 °C.

Which melting point does the source give for CC(C)Oc1ccc(CCCOc2cc(CCC(=O)O)n(C(C)C)n2)c(Oc2ncc(C(F)(F)F)cc2Cl)c1 here?
The melting point was 128 °C.

Which melting point does the source give for O=C(O)c1ccc(NCCNC(=O)C2Cc3ccccc3N2S(=O)(=O)c2ccc(-c3cc(C(F)(F)F)ccc3Cl)cc2)cc1 (stereo not drawn) here?
The melting point was 130 °C.
